The source of these data is ChEMBL document CHEMBL4000254, “Sodium Channel Blockers” (ACS Med Chem Lett, 2017).

Each structure is given as a SMILES string. pIC50: −log10 of the molar value.

In the assay the target is Sodium channel protein type 9 subunit alpha (Homo sapiens, UniProt Q15858). The assay is described as follows: Inhibition of human Nav1.7 expressed in HEK293 cells assessed as inhibition of peak current after 50 secs by automated patch clamp assay. The format is cell-based.
Chain of Sodium channel protein type 9 subunit alpha (Q15858 whole entry): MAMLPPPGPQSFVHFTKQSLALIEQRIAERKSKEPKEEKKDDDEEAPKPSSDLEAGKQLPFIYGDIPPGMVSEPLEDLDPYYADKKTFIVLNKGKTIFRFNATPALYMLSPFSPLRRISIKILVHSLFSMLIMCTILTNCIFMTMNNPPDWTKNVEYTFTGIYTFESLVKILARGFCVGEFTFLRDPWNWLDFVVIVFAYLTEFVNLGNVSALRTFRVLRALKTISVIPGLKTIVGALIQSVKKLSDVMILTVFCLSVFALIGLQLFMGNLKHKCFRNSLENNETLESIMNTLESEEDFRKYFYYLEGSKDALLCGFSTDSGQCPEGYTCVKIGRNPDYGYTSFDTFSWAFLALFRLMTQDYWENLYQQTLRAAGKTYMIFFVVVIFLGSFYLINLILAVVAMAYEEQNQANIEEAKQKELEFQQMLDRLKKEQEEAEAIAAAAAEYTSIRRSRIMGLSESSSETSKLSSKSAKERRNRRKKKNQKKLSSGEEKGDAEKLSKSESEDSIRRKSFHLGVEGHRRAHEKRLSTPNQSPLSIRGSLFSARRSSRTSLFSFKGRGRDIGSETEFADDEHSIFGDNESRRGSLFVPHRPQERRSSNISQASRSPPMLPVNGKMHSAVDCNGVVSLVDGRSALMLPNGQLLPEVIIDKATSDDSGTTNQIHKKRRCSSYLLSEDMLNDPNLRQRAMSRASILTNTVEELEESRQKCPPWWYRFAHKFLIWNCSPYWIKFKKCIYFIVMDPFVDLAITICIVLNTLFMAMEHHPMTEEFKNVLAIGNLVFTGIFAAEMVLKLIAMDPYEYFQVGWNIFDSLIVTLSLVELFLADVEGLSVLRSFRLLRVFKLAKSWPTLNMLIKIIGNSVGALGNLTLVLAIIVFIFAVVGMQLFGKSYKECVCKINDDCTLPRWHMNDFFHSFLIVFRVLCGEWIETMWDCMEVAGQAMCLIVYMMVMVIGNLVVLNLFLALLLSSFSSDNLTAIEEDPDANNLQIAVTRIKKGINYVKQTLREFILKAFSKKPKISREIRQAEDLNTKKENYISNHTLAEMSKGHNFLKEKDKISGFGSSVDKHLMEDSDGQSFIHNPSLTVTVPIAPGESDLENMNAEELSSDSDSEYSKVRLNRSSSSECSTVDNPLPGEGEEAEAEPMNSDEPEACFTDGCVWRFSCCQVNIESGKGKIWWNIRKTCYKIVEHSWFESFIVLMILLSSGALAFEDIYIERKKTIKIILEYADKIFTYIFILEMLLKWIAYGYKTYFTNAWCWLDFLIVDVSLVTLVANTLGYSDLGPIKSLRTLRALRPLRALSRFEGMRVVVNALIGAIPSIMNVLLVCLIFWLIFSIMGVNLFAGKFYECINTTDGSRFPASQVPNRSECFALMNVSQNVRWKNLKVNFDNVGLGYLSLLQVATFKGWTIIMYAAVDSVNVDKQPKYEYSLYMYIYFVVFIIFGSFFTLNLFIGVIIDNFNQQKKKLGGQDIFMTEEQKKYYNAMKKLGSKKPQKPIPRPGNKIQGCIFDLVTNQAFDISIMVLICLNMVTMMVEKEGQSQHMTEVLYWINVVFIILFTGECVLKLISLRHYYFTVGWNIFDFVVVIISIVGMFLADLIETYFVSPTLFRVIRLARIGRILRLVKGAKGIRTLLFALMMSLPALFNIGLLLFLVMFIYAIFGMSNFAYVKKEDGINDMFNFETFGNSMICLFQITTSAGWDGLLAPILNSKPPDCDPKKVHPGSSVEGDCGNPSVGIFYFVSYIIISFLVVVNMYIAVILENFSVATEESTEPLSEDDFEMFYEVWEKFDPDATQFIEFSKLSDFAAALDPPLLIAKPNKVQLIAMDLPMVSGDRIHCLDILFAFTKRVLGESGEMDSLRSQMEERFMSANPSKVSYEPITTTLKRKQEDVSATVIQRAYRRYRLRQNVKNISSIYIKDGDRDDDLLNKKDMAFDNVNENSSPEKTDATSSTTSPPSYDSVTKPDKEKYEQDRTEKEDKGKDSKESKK
Broadly, the pIC50 is −log10 of the IC50, conventionally taken in molar units. For `CS(=O)(=O)NC(=O)c1cc(Cl)c(-n2nc(Cl)c3cc(-c4cccc(Cl)c4F)ccc32)cc1F`, the negative logarithm of the IC50 (pIC50) is 7.15.

Turning to `CS(=O)(=O)NC(=O)c1cc(Cl)c(-n2cc(F)c3cc(-c4cccc(Cl)c4)cnc32)cc1F`, the negative logarithm of the IC50 (pIC50) was 7.30. On to `CS(=O)(=O)NC(=O)c1cc(Cl)c(-n2nc(F)c3cc(-c4cccc(Cl)c4)ccc32)cc1F`, for which the negative-log IC50 (pIC50) was 7.40. Regarding `CS(=O)(=O)NC(=O)c1cc(Cl)c(-n2cc(F)c3cc(-c4ccc(C(F)(F)F)cc4)cnc32)cc1F`, the pIC50 was 7.30. As for `CS(=O)(=O)NC(=O)c1cc(Cl)c(-n2nc(Cl)c3cc(-c4cc(F)ccc4F)ccc32)cc1F`, the pIC50 was 7.05.

For `CS(=O)(=O)NC(=O)c1cc(Cl)c(-n2ncc3cc(-c4ccc(Cl)cc4F)ccc32)cc1F`, the negative logarithm of the IC50 (pIC50) was 7.15. For the molecule `Cc1ccccc1-c1ccc2c(c1)c(F)nn2-c1cc(F)c(C(=O)NS(C)(=O)=O)cc1Cl`, the negative logarithm of the IC50 (pIC50) was 7.22. In the case of `COc1cccc(-c2ccc3c(c2)c(F)nn3-c2cc(F)c(C(=O)NS(C)(=O)=O)cc2Cl)c1`, the pIC50 was 7.10. As to `CS(=O)(=O)NC(=O)c1cc(Cl)c(-n2cc(Cl)c3cc(-c4ccc(F)cc4F)cnc32)cc1F`, the negative logarithm of the IC50 (pIC50) is 7.10. With `Cc1cccc(-c2ccc3c(c2)c(Cl)nn3-c2cc(F)c(C(=O)NS(C)(=O)=O)cc2Cl)c1`, the pIC50 was 7.41.

Take `CS(=O)(=O)NC(=O)c1cc(Cl)c(-n2cc(Cl)c3cc(-c4ccc(C(F)(F)F)cc4)cnc32)cc1F`: the negative-log IC50 (pIC50) was 7.30.

With `CS(=O)(=O)NC(=O)c1cc(Cl)c(-n2nc(Cl)c3cc(OCc4ccc5ccccc5c4)ccc32)cc1F`, the negative-log IC50 (pIC50) was 8.12. Consider `CS(=O)(=O)NC(=O)c1cc(Cl)c(-n2nc(Cl)c3cc(-c4ccc(Cl)c(F)c4)ccc32)cc1F`, for which the negative logarithm of the IC50 (pIC50) was 7.10.

`CS(=O)(=O)NC(=O)c1cc(Cl)c(-n2cc(F)c3cc(-c4cccc(Cl)c4F)cnc32)cc1F`: the pIC50 was 7.40.

With `Cc1cc(F)ccc1-c1cnc2c(c1)c(Cl)cn2-c1cc(F)c(C(=O)NS(C)(=O)=O)cc1Cl`, the pIC50 was 7.05.

As for `CS(=O)(=O)NC(=O)c1cc(Cl)c(-n2nc(Cl)c3cc(-c4cc(F)c(F)c(F)c4)ccc32)cc1F`, the negative-log IC50 (pIC50) is 7.70.

Consider `CS(=O)(=O)NC(=O)c1cc(Cl)c(-n2ncc3cc(-c4cccc(Cl)c4)ccc32)cc1F`, for which the pIC50 was 7.15.

Turning to `CS(=O)(=O)NC(=O)c1cc(Cl)c(-n2nc(F)c3cc(-c4cccc(F)c4)ccc32)cc1F`, the negative logarithm of the IC50 (pIC50) is 7.05.

Regarding `CS(=O)(=O)NC(=O)c1cc(Cl)c(-n2cc(Cl)c3cc(-c4ccc(F)cc4Cl)cnc32)cc1F`, the pIC50 is 7.40.

As for `Cc1cccc(-c2ccc3c(c2)c(F)nn3-c2cc(F)c(C(=O)NS(C)(=O)=O)cc2Cl)c1`, the negative logarithm of the IC50 (pIC50) was 7.10. With `CS(=O)(=O)NC(=O)c1cc(Cl)c(-n2nc(Cl)c3cc(-c4ccc(OC(F)(F)F)cc4)ccc32)cc1F`, the negative logarithm of the IC50 (pIC50) was 7.10.
